According to patent US20220265618A1, “METHODS OF TREATING PROSTATE CANCER” (Celgene Quanticel Research, Inc., priority 2021, published 2022):

What was measured:
[1] = system: LNCaP_AR shTP53/RB1 cells; assay: Proliferation assay (Cell Titer-Glo), LNCaP_AR shTP53/RB1 cells; type: cell-based, human
Description: (§1) Proliferation was measured both at Day 0 and at Day 14, and percent of growth was determined using Luciferase assay.
(§2) Cell culture: VCaP, LNCaP, 22Rv1, DU145 and PC3 cancer cell lines were obtained from ATCC. VCaP cells were cultured in DMEM media supplemented with 8% FBS, LNCaP cells were cultured in RPMI1640 media supplemented with 10% FBS, and PC3 cells were cultured in F12 K media supplemented with 10% FBS. LNCaP_AR CRISPRi gCTR, LNCaP_AR CRISPRi gTP53/RB1, and LNCaP_AR shTP53/RB1 cells were obtained from Charles L. Sawyers lab and were cultured in RPMI1640 supplemented with 10% FBS+2 mM L-Glutamine+1 mM Sodium Pyruvate+10 mM Hepes. DKO and TKO cells were obtained from David W. Goodrich lab and were cultured in DMEM media supplemented with 2.5% charcoal-stripped FBS+5 μg/mL of insulin/transferring/selenium (ITS)+10 μg/mL of bovine pituitary extract (BPE)+10 μg/mL of epidermal growth factor+1 μg/mL of cholera toxin. DKO cells have been derived from intact mice so were cultured also in presence of 1nM R1881.
(§3) Proliferation Assay: Cells were plated in a 384-well format and were allowed to adhere 24h before treatment. Drugs were titrated 1:3 from 10 μM to […] with 9 doses in triplicate. Cell proliferation was measured on the day of treatment (Day 0) and on Day 3 or Day 6 or Day 14 using Cell Titer-Glo reagent (Promega) according to the manufacturer's instructions. Cell growth normalized to the DMSO vehicle control and to Day 0 was fitted by nonlinear regression using GraphPad Prism 7.03 (GraphPad Software, Inc.).

[2] = system: HEXIM1 gene expression in 22Rv1 cells; assay: qPCR gene expression in 22Rv1 cells: HEXIM1; type: cell-based, human; settings: 22RV.1 cells, 400 nM, 48 hours
Description: (§4) KLK3, TMPRSS2,MYC and HEXIM1 genes expression was determined by qPCR.

[3] = system: MYC gene expression in 22Rv1 cells; assay: qPCR gene expression in 22Rv1 cells: MYC; type: cell-based, human; settings: 22RV.1 cells, 48 hours
Description: as §4

[4] = system: LNCaP cells overexpressing AR (LNCaP_AR); assay: Proliferation assay (Cell Titer-Glo), LNCaP_AR cells; type: cell-based, human
Description: (§5) Proliferation was measured both at Day 0 and at Day 3, and percent of growth was determined using Luciferase assay.
(§6) Proliferation was measured both at Day 0 and at Day 6, and percent of growth was determined using Luciferase assay.
as §1, §2, §3

[5] = system: TKO cells (deleted for Pten, Rb1, and Trp53); assay: Proliferation assay (Cell Titer-Glo), TKO cells; type: cell-based, mouse
Description: as §6, §2
as §3, with “Cell growth normalized to the DMSO vehicle control and to Day 0 was fitted by nonlinear regression using GraphPad Prism 7.03 (GraphPad Software, Inc.).” left out

[6] = system: DKO cells (deleted for Pten and Rb1); assay: Proliferation assay (Cell Titer-Glo), DKO cells; type: cell-based, mouse
Description: as §1, §2
as §3, with “Cell growth normalized to the DMSO vehicle control and to Day 0 was fitted by nonlinear regression using GraphPad Prism 7.03 (GraphPad Software, Inc.).” left out

[7] = system: TMPRSS2 gene expression in VCaP cells; assay: qPCR gene expression in VCaP cells: TMPRSS2; type: cell-based, human; settings: 400 nM, 48 h
Description: as §4

VCaP cells = assay: Proliferation assay (Cell Titer-Glo), VCaP cells; type: cell-based, human
Description: as §5, §6
as §2, with “DKO cells have been derived from intact mice so were cultured also in presence of 1nM R1881.” left out
Proliferation Assay: Cells were plated in a 384-well format and were allowed to adhere 24h before treatment. […] Cell proliferation was measured on the day of treatment (Day 0) and on Day 3 or Day 6 or Day 14 using Cell Titer-Glo reagent (Promega) according to the manufacturer's instructions. […]

[8] = system: TMPRSS2 gene expression in 22Rv1 cells; assay: qPCR gene expression in 22Rv1 cells: TMPRSS2; type: cell-based, human; settings: 22RV.1 cells, 48 hours
Description: as §4

[9] = system: KLK3 gene expression in 22Rv1 cells; assay: qPCR gene expression in 22Rv1 cells: KLK3; type: cell-based, human; settings: 22RV.1 cells, 48 hours
Description: as §4

[10] = system: MYC gene expression in VCaP cells; assay: qPCR gene expression in VCaP cells: MYC; type: cell-based, human; settings: 48 h
Description: as §4

[11] = system: LNCaP_AR CRISPRi guide TP53/RB1 cells; assay: Proliferation assay (Cell Titer-Glo), LNCaP_AR CRISPRi TP53/RB1 cells; type: cell-based, human
Description: as §1, §2, §3

22Rv1 cells = assay: Proliferation assay (Cell Titer-Glo), 22Rv1 cells; type: cell-based; settings: Homo sapiens, 22Rv1, 72 h; 3 days (FIG. 6); read-out: IC50, proliferation of 22RV.1 cells
Description: as §5, §2
(§7) Proliferation Assay: Cells were plated in a 384-well format and were allowed to adhere 24h before treatment. Drugs were titrated 1:3 from 10 μM to 0.1 nM with 9 doses in triplicate. Cell proliferation was measured on the day of treatment (Day 0) and on Day 3 or Day 6 or Day 14 using Cell Titer-Glo reagent (Promega) according to the manufacturer's instructions. […]

DU145 cells = assay: Proliferation assay (Cell Titer-Glo), DU145 cells; type: cell-based, human; settings: 3 days (FIG. 10)
Description: as §5, §2, §7

[12] = system: Neuroendocrine prostate cancer models; assay: Proliferation assay, all Neuroendocrine prostate cancer models tested (summary); type: cell-based; settings: summary over all NEPC models
Description: as §2, §7

[13] = system: KLK3 gene expression in VCaP cells; assay: qPCR gene expression in VCaP cells: KLK3; type: cell-based, human; settings: 400 nM, 48 h
Description: as §4

[14] = system: HEXIM1 gene expression in VCaP cells; assay: qPCR gene expression in VCaP cells: HEXIM1; type: cell-based, human; settings: 48 h
Description: as §4

LNCaP cells = assay: Proliferation assay (Cell Titer-Glo), LNCaP cells; type: cell-based, human
Description: as §5, §6, §2, §3

PC3 cells = assay: Proliferation assay (Cell Titer-Glo), PC3 cells; type: cell-based, human; settings: 3 days (FIG. 11)
Description: as §5, §2, §7

SMILES: Cn1cc(-c2cc(S(C)(=O)=O)ccc2OCC2CC2)c2ccccc2c1=O [Compound A, 4-[2-(cyclopropylmethoxy)-5-methylsulfonylphenyl]-2-methylisoquinolin-1-one]
- IC50 ([1]; Homo sapiens, LNCaP/AR, treated Day 0 and Day 6, total 14 days (FIG. 8B)): 60 nM
- cell death in LNCaP_AR cells depleted for TP53 and RB1 (shRNA) ([1]; summary statement): induced cell death
- growth arrest of LNCaP_AR shTP53/RB1 cells ([1]; treated Day 0 and Day 6, total 14 days (FIG. 8B)): 100%
- HEXIM1 induction [2]: 31%
- MYC downregulation ([3]; 40 nM): 64%
- MYC downregulation ([3]; 400 nM): 93.9%
- growth arrest of LNCaP_AR cells ([4]; 3 days (FIG. 4A)): complete growth arrest
- cytotoxicity in LNCaP_AR cells ([4]; highest dose, longer treatment (6 days, FIG. 4B)): cytotoxicity
- concentration causing cell death in LNCaP_AR cells on re-treatment ([4]; treated Day 0 and Day 6, total 14 days (FIG. 5)): > 1 µM
- growth arrest of TKO cells ([5]; at 3 uM, treated Day 0 and Day 3, total 6 days (FIG. 9A)): 100%
- cytotoxic activity in TKO cells ([5]; at the highest concentrations (FIG. 9A)): cytotoxic activity
- growth arrest of DKO cells ([6]; at 1 uM, treated Day 0 and Day 6, total 14 days (FIG. 9B)): 100%
- cytotoxic activity in DKO cells ([6]; at the highest concentrations (FIG. 9B)): cytotoxic activity
- TMPRSS2 downregulation as compared to DMSO [7]: 26.3%
- growth arrest of VCaP cell proliferation (VCaP cells; at 0.3 μM Compound A, 3 and 6 days (FIGS. 1A-1B)): 100%
- cytotoxic effects in VCaP cells (VCaP cells; at the highest concentration (FIGS. 1A-1B)): cytotoxic effects
- TMPRSS2 reduction ([8]; 40 nM): 93.2%
- TMPRSS2 reduction ([8]; 400 nM): 95.3%
- KLK3 downregulation ([9]; 40 nM): 98.8%
- KLK3 downregulation ([9]; 400 nM): 99.51%
- reduction in MYC expression ([10]; 40 nM): 18.9%
- MYC downregulation ([10]; 400 nM): 81.1%
- IC50 ([11]; Homo sapiens, LNCaP/AR, treated Day 0 and Day 6, total 14 days (FIG. 8A)): 220 nM
- cell death in LNCaP_AR cells depleted for TP53 and RB1 (CRISPRi) ([11]; summary statement): induced cell death
- growth arrest of LNCaP_AR CRISPRi guide TP53/RB1 cells ([11]; treated Day 0 and Day 6, total 14 days (FIG. 8A)): 100%
- IC50 (22Rv1 cells): 200 nM
- reduction of DU145 proliferation (DU145 cells): 76%
- IC50 (DU145 cells; Homo sapiens, DU-145, 72 h): 680 nM
- reduction of cell proliferation in all Neuroendocrine prostate cancer models tested [12]: > 76%
- KLK3 downregulation as compared to DMSO [13]: 80.2%
- HEXIM1 upregulation as compared to DMSO ([14]; 40 nM): 121.1%
- HEXIM1 upregulation as compared to DMSO ([14]; 400 nM): 754%
- IC50 (LNCaP cells; Homo sapiens, LNCaP, 144 h, prolonged treatment (6 days) (FIG. 3B), read-out: half maximal inhibitory concentration (IC50), LNCaP cells): 490 nM
- growth arrest of LNCaP cells (LNCaP cells; after 3 days of treatment (FIG. 3A)): 100%
- cell death in LNCaP cells (LNCaP cells; prolonged treatment (6 days)): induced cell death
- reduction of PC3 proliferation (PC3 cells): 80%
- IC50 (PC3 cells; Homo sapiens, PC-3, 72 h): 550 nM
